Legend:
[1] = tested on: undifferentiated neurons and precursor cells in the neural tube; assay: Cell death in the early neural tube in vivo; set-up: species or system chick
ICE = target: T1, ICE (Homo sapiens, UniProt P29466); details: protease activity of ICE; cited from earlier work
T1 sequence (P29466 120-297): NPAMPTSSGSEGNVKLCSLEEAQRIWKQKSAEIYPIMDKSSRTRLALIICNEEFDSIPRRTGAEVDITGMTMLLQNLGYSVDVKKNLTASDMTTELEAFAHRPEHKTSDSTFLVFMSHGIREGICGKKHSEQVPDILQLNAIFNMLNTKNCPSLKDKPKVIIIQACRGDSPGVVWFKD
T1 sequence (P29466 317-404): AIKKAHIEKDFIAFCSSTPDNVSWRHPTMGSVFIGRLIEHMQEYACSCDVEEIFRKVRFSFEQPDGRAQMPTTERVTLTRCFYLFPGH

lumbar motoneurons = assay: Naturally occurring lumbar motoneuron cell death in vivo; set-up: species or system chick
Protocol: In the first model, embryos were treated with a single dose of an ICE inhibitor or control protease inhibitor on embryonic day 8 (E8), the time of maximum naturally occurring motoneuron cell death (Hamburger et al., J. Morph. 88:49-92 (1951)). Embryos treated in vivo with the peptide inhibitors appeared to develop normally and there were no gross abnormalties. […] 24 hours after treatment there is a similar reduction in the number of pyknotic cells and a significant increase in the number of healthy motoneurons (Table 6B). […] The ability of ICE inhibitors to block the naturally occurring cell death of interdigital cells in the developing limb was also studied. These cells undergo PCD as a means of sculpting the digits in many vertebrates. When embryos were treated with either ICE inhibitor on embryonic days, E6 and E7, there was a substantial reduction in the number of pyknotic cells between the digits of the hindlimb (FIG. 14).
Peptides. Two peptide inhibitors of ICE, Acetyl-Tyr-Val-Ala-Asp-aldehyde (Ac-YVAD-CHO) and Acetyl-Tyr-Val-Ala-Asp-chloromethylketone (Ac-YVAD-CMK) and two control peptide inhibitors, Acetyl-Leu-Leu-Arg-aldehyde (Ac-LLR-CHO; Leupeptin) and n-tosyl-Lys-chloromethyl-ketone (Tos-Lys-CMK) were synthesized by Bachem Biosciences (King of Prussia, Pa.) and shown by thin layer chromatography and HPLC to be greater than 98% pure. […] Methods for administration of peptides to examine effects on naturally occurring motoneuron cell death in vivo. Although cell death of lumbar motoneurons occurs between E6 and E12, the peak period of death (i.e., the greatest number of pyknotic cells) occurs on E8 (Oppenheim et al., J Comp. Neurol. 177:87-112 (1978)). For these experiments, embryos were given a single administration of an agent on E8 0 hr and sacrificed 15 hours later. […] Ac-YVAD-CMK and Tos-Lys-CMK were administered in a solution of DMSO/BSA, whereas Ac-YVAD-CHO and leupeptin (Sigma) were in BSA alone. The solutions (50-100 μl) were dropped onto the highly vascularized chorioallantoic membrane through a window in the shell. The control groups included both DMSO and BSA or vehicle alone. Embryos were killed and staged by the Hamburger-Hamilton series (Hamburger and Hamilton, J. Morph. 88:49-92 (1951)). The thoraco-lumbar spinal cord was dissected, fixed in Camoys or Bouins fixative, processed for paraffin histology, serially sectioned (10-12 μm) and stained with either thionin or hematoxylin and eosin. Pyknotic motoneurons were identified based on criteria previously described (Chu-Wang and Oppenheim, J. Comp. Neurol. 177:33-58 (1978); Clarke and Oppenheim In Methods in Cell Biology Series; Cell Death; eds: Schwartz and Osborne. Academic Press. New York, N.Y. In press.) and were counted in every 10th or 20th section through the entire lumbar enlargement. The total number of pyknotic cells were then estimated by multiplying these values by 10 or 20. All cell counts were performed by individuals blinded with regard to drug treatment of the embryos. Methods for limb bud removal experiments. A unilateral limb bud removal was performed on E2 as described previously (Oppenheim et al., J. Comp. Neurol. 177:87-112 (1978)). Because induced cell death following limb removal begins on E5 (before that there is no difference in the number of motoneurons between the operated or unoperated sides) embryos were given one treatment of Ac-YVAD-CHO (40 μg) or BSA (control) at E5-0 hr and another at E5-12 hours (total peptide administered was 80 μg). Animals were killed at E6-0 hr. Methods were the same as described above except the section thickness was 6-8 μm (see Method for Administration of Peptides, above). Methods for limb bud interdigital regions. […]

cervical motoneurons = assay: Cervical motoneuron cell death in vivo; set-up: species or system chick
From the text: The ability of the ICE inhibitors to block cell death in two classes of neurons whose naturally occurring death appears to be independent of target interaction was also studied. First, motoneurons in the cervical spinal cord undergo PCD between E4 and E5, with maximum levels occurring at E4.5.

[2] = 24 hours post treatment, mean ±SD

Acetyl-Tyr-Val-Ala-Asp-aldehyde [Ac-YVAD-CHO]
survival promoting effects on floorplate or dorsal spinal cord cells ([1]; compared to control animals): no survival promoting effects | Pyknotic Cells in the Early Neural Tube, Dorsal Spinal Cord ([1]; mean ±SD): 1.350 ± 0.297 | Pyknotic Cells in the Early Neural Tube, Floor Plate ([1]; mean ±SD): 1.115 ± 0.246 | Ki (ICE): 0.76 nM | Pyknotic Lumbar Motoneurons on E8 (lumbar motoneurons; 15 hours post treatment, single administration of 400 μg on E8, mean ±SD): 146 ± 35 | Healthy Motoneurons (lumbar) on E9 (lumbar motoneurons; [2]): 15,680 ± 684 | Pyknotic Motoneurons (lumbar) on E9 (lumbar motoneurons; [2]): 150 ± 30 | effectiveness for inhibition of motoneuron PCD in vivo (lumbar motoneurons; FIG. 13): dose dependent | survival promoting effects on cervical motoneurons (cervical motoneurons; compared to control or Ac-LLR-CHO treated animals): no survival promoting effects | Pyknotic Cervical Motoneurons on E4.5 (cervical motoneurons; mean ±SD): 25.9 ± 3.4
